Values of other authors as cited in patent US8778989B2, “Cosmetic composition comprising a lipid fraction from vegetable source and anticrystaling agent” (Natura Cosmeticos S.A., priority 2004, dated 2014).
Where two headings read alike, the source gives them in different places.

Compound	Relative Velocity of Oxidation of Fatty Acids (T = 20° C.)	Relative Velocity of Oxidation of Fatty Acids (T = 37° C.)	Relative Velocity of Oxidation of Fatty Acids (T = 100° C.)	oxidation rate relative to oleic acid (as fast as oleic acid)
CCCCC/C=C\C/C=C\CCCCCCCC(=O)O [Linoleic, 9,12-linoleic acid]	48	42	64	15 times
CCCCCCCC/C=C\CCCCCCCC(=O)O [Oleic, oleic acid]	4	–	6	–
CCCCCCCCCCCCCCCCCC(=O)O [Stearic]	–	–	0.6	–
